Results taken from patent US20230416262A1, “TRPML MODULATORS” (Casma Therapeutics, Inc., priority 2020, published 2023).
pEC50: −log10 of the molar value.

Key:
[1] = system: THP-1 cells; test: Lamp1 lysosomal exocytosis assay; type: cell-based; settings: Homo sapiens, 55 min, 55 min incubation, top dose 20 μM
Outline: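 THP-1 cells (1e5/well) exposed to a 7-point 3-fold compound series, top final 20 μM, for 55 min at 37°C. Surface Lamp1 then stained with Lamp1-PE on ice in buffer containing 80 μM Dynasore, and read by flow cytometry as PE geometric mean on live, sytox-negative singlets.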

[2] = system: TFEB; test: TFEB nuclear translocation assay; type: cell-based; settings: Homo sapiens; HeLa wt or HeLa TRPML1 KO cells, treated for 2 hrs; ratio of nuclear to ring-region TFEB intensity
Outline: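 HeLa wild-type or TRPML1 KO cells treated 2 h with compound at 37 °C, PFA-fixed, immunostained for TFEB (Alexa 488) with Hoechst nuclei. Imaged at ×20, four fields/well. Value is ratio of nuclear to perinuclear-ring TFEB intensity, with nuclei counts.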

Row | SMILES | pEC50 [1] | pEC50 [2]
1 | O=S(=O)(c1ccc(C(F)F)cc1)N1CC2(CCN(Cc3cnccn3)CC2)c2ccccc21 [Compound I-163, 1-[4-(difluoromethyl)benzenesulfonyl]-1′-[(pyrazin-2-yl)methyl]-1,2-dihydrospiro[indole-3,4′-piperidine]] | ≤ 5.30 | ≥ 5.70
2 | CN(C)S(=O)(=O)c1ccc(S(=O)(=O)N2CC3(CCN(CC(C)(F)F)CC3)c3ccccc32)cc1 [Compound I-97, 4-{[1′-(2,2-difluoropropyl)-1,2-dihydrospiro[indole-3,4′-piperidin]-1-yl]sulfonyl}-N,N-dimethylbenzene-1-sulfonamide] | 6.00 to 6.29 | ≥ 5.70
3 | O=S(=O)(c1ccc(C(F)F)cc1)N1CC2(CCN(Cc3cccnc3)CC2)c2ccccc21 [Compound I-165, 1-[4-(difluoromethyl)benzenesulfonyl]-1′-[(pyridin-3-yl)methyl]-1,2-dihydrospiro[indole-3,4′-piperidine]] | ≤ 5.30 | 5.10 to 5.70
4 | CC(C)C(=O)N1CC2(CCN(C(=O)OCc3ccccc3)CC2)c2ccccc21 [Compound I-190, benzyl 1-(2-methylpropanoyl)-1,2-dihydrospiro[indole-3,4′-piperidine]-1′-carboxylate] | ≤ 5.30 | ≤ 5.00
5 | CC1(C)Oc2ccc(S(=O)(=O)N3CC4(CCCC4)c4ccccc43)cc2O1 [Compound I-57, 1′-[(2,2-dimethyl-2H-1,3-benzodioxol-5-yl)sulfony1]-1′,2′-dihydrospiro[cyclopentane-1,3′-indole]] | ≤ 5.30 | 5.10 to 5.70
6 | CN(C(=O)N1CC2(CCN(C(=O)OCc3ccccc3)CC2)c2ccccc21)c1ccc(C(F)F)cc1 [Compound I-248, benzyl 1-((4-(difluoromethyl)phenyl)(methyl)carbamoyl)spiro[indoline-3,4′-piperidine]-1′-carboxylate] | ≤ 5.30 | ≤ 5.00
7 | CN(C)S(=O)(=O)c1ccc(S(=O)(=O)N2CC3(CCN(CC(F)(F)F)CC3)c3ccccc32)cc1 [Compound I-87, N,N-dimethyl-4-{[1′-(2,2,2-trifluoroethyl)-1,2-dihydrospiro[indole-3,4′-piperidin]-1-yl]sulfonyl}benzene-1-sulfonamide] | 6.00 to 6.29 | ≥ 5.70
8 | O=C(Nc1ccc2c(c1)OCCO2)N1CCC2(CC1)CN(S(=O)(=O)c1ccc(C(F)F)cc1)c1ccccc12 [Compound I-225, 1-((4-(difluoromethyl)phenyl)sulfonyl)-N-(2,3-dihydrobenzo[b][1,4]dioxin-6-yl)spiro[indoline-3,4′-piperidine]-1′-carboxamide] | ≤ 5.30 | ≤ 5.00
9 | O=C(OCc1ccccc1)N1CCC2(C1)CN(S(=O)(=O)c1ccc(C(F)F)cc1)c1ccccc12 (stereo not drawn) [Compound I-91, benzyl 1-[4-(difluoromethyl)benzenesulfonyl]-1,2-dihydrospiro[indole-3,3′-pyrrolidine]-1′-carboxylate] | ≤ 5.30 | 5.10 to 5.70
10 | CC1(C)Cc2cc(S(=O)(=O)N3CC4(CCCC4)c4ccccc43)ccc2O1 [Compound I-2, 1′-[(2,2-dimethyl-2,3-dihydro-1-benzofuran-5-yl)sulfonyl]-1′,2′-dihydrospiro[cyclopentane-1,3′-indole]] | ≤ 5.30 | 5.10 to 5.70
11 | O=S(=O)(c1ccc(C(F)F)cc1)N1CC2(CCN(Cc3ncccn3)CC2)c2ccccc21 [Compound I-167, 1-[4-(difluoromethyl)benzenesulfonyl]-1′-[(pyrimidin-2-yl)methyl]-1,2-dihydrospiro[indole-3,4′-piperidine]] | ≤ 5.30 | 5.00 to 5.10
12 | O=C(OCc1ccccc1)N1CCC2(CC1)CN(C(=O)Nc1ccc(C(F)F)cc1)c1ccccc12 [Compound I-247, benzyl 1-((4-(difluoromethyl)phenyl)carbamoyl)spiro[indoline-3,4′-piperidine]-1′-carboxylate] | ≤ 5.30 | ≤ 5.00
13 | O=S(=O)(c1ccc(C(F)F)cc1)N1CC2(CCN(CC(F)(F)F)CC2)c2ccccc21 [Compound I-86, 1-[4-(difluoromethyl)benzenesulfonyl]-1′-(2,2,2-trifluoroethyl)-1,2-dihydrospiro[indole-3,4′-piperidine]] | ≤ 5.30 | ≥ 5.70

The next lines start with the values.

Row | pEC50 [1] | pEC50 [2] | SMILES
14 | 5.30 to 6.00 | 5.10 to 5.70 | CN(C)S(=O)(=O)c1ccc(S(=O)(=O)N2CC3(CCCC3)c3ccncc32)cc1 [Compound I-127, 4-({1′,2′-dihydrospiro[cyclopentane-1,3′-pyrrolo[2,3-c]pyridin]-1′-yl}sulfonyl)-N,N-dimethylbenzene-1-sulfonamide]
15 | ≤ 5.30 | ≥ 5.70 | CN(Cc1ccccc1)C(=O)C1CCC2(CC1)CN(S(=O)(=O)c1ccc(C(F)F)cc1)c1ccccc12 (stereo not drawn) [Compound I-235, N-benzyl-1′-((4-(difluoromethyl)phenyl)sulfonyl)-N-methylspiro[cyclohexane-1,3′-indoline]-4-carboxamide]
16 | ≥ 6.30 | ≥ 5.70 | O=C(OCc1ccccc1)N1CCC2(CC1)CN(S(=O)(=O)c1ccc(S(=O)(=O)C(F)F)cc1)c1ccccc12 [Compound I-186, benzyl 1-((4-((difluoromethyl)sulfonyl)phenyl)sulfonyl)spiro[indoline-3,4′-piperidine]-1′-carboxylate]
17 | ≥ 6.30 | ≥ 5.70 | CN(C)S(=O)(=O)c1ccc(S(=O)(=O)N2CC3(CCCCC3)c3ccccc32)cc1 [Compound I-99, 4-({1′,2′-dihydrospiro[cyclohexane-1,3′-indol]-1′-yl}sulfonyl)-N,N-dimethylbenzene-1-sulfonamide]
18 | ≤ 5.30 | ≤ 5.00 | O=C(Nc1ccc2c(c1)CCO2)N1CCC2(CC1)CN(S(=O)(=O)c1ccc(C(F)F)cc1)c1ccccc12 [Compound I-219, 1-((4-(difluoromethyl)phenyl)sulfonyl)-N-(2,3-dihydrobenzofuran-5-yl)spiro[indoline-3,4′-piperidine]-1′-carboxamide]
19 | ≤ 5.30 | ≤ 5.00 | COc1ccc(NC(=O)N2CCC3(CC2)CN(S(=O)(=O)c2ccc(C(F)F)cc2)c2ccccc23)cc1OC [Compound I-226, 1-((4-(difluoromethyl)phenyl)sulfonyl)-N-(3,4-dimethoxyphenyl)spiro[indoline-3,4′-piperidine]-1′-carboxamide]
20 | ≥ 6.30 | ≥ 5.70 | CCOC[C@]1(C)CC[C@]2(CC1)CN(S(=O)(=O)c1ccc(C(F)F)cc1)c1ccccc12 [Compound I-137, (1r,4r)-1′-[4-(difluoromethyl)benzenesulfonyl]-4-(ethoxymethyl)-4-methyl-1′,2′-dihydrospiro[cyclohexane-1,3′-indole]]
21 | ≥ 6.30 | ≥ 5.70 | O=C(OCc1ccccc1)N1CCC2(CC1)CN(S(=O)(=O)c1ccc(C(F)F)cc1)c1ccccc12 [Compound I-81]
22 | ≤ 5.30 | 5.10 to 5.70 | O=C(OCc1ccccc1)N1CCC2(CC1)CN(C(=O)C1(c3ccccc3)CC1)c1ccccc12 [Compound I-191, benzyl 1-(1-phenylcyclopropanecarbonyl)-1,2-dihydrospiro[indole-3,4′-piperidine]-1′-carboxylate]
23 | ≥ 6.30 | ≥ 5.70 | O=C(OCc1ccccc1)N1CCC2(CC1)CN(S(=O)(=O)c1ccc(C(F)(F)C3CC3)cc1)c1ccccc12 [Compound I-139, benzyl 1-((4-(cyclopropyldifluoromethyl)phenyl)sulfonyl)spiro[indoline-3,4′-piperidine]-1′-carboxylate]
24 | ≤ 5.30 | ≥ 5.70 | CC1(C)COc2ccc(S(=O)(=O)N3CC4(CCCC4)c4c(F)cccc43)cc21 [Compound I-100, 1′-[(3,3-dimethyl-2,3-dihydro-1-benzofuran-5-yl)sulfonyl]-4′-fluoro-1′,2′-dihydrospiro[cyclopentane-1,3′-indole]]
25 | ≤ 5.30 | ≥ 5.70 | CN(C(=O)C1CCC2(CC1)CN(S(=O)(=O)c1ccc(C(F)F)cc1)c1ccccc12)c1ccccc1 (stereo not drawn) [Compound I-234, 1′-((4-(difluoromethyl)phenyl)sulfonyl)-N-methyl-N-phenylspiro[cyclohexane-1,3′-indoline]-4-carboxamide]
26 | ≤ 5.30 | ≤ 5.00 | Cc1cc2n(n1)C1(CCCCC1)CN2S(=O)(=O)c1ccc(C(F)F)cc1 [Compound I-148, 1′-[4-(difluoromethyl)benzenesulfonyl]-6′-methyl-1′,2′-dihydrospiro[cyclohexane-1,3′-pyrazolo[1,5-a]imidazole]]
27 | ≥ 6.30 | ≥ 5.70 | CN(C)S(=O)(=O)c1ccc(S(=O)(=O)N2CC3(CCCC3)c3c(F)cccc32)cc1 [Compound I-95, 4-({4′-fluoro-1′,2′-dihydrospiro[cyclopentane-1,3′-indol]-1′-yl}sulfonyl)-N,N-dimethylbenzene-1-sulfonamide]
28 | ≥ 6.30 | ≥ 5.70 | CC1(C)Cc2cc(S(=O)(=O)N3CC4(CCN(C(=O)OCc5ccccc5)CC4)c4ccccc43)ccc2O1 [Compound I-189, benzyl 1-((2,2-dimethyl-2,3-dihydrobenzofuran-5-yl)sulfonyl)spiro[indoline-3,4′-piperidine]-1′-carboxylate]
29 | ≥ 6.30 | ≥ 5.70 | CN(C)S(=O)(=O)c1ccc(S(=O)(=O)N2CC3(CCCC3)c3ccccc32)cc1 [Compound I-68, 4-({1′,2′-dihydrospiro[cyclopentane-1,3′-indol]-1′-yl}sulfonyl)-N,N-dimethylbenzene-1-sulfonamide]
30 | 6.00 to 6.29 | ≥ 5.70 | O=C(OCC1CC1)N1CCC2(CC1)CN(S(=O)(=O)c1ccc(C(F)F)cc1)c1ccccc12 [Compound I-170, cyclopropylmethyl 1-((4-(difluoromethyl)phenyl)sulfonyl)spiro[indoline-3,4′-piperidine]-1′-carboxylate]
